According to patent publication US11701368B2 (EYE CO PTY LTD, priority 2018, dated 2023):
Where two headings read alike, the source gives them in different places.

Columns and labels:
[1] = Stability of drug aqueous solutions under autoclave conditions; format: physicochemical; conditions: saturated solution, 121° C./30 min
Description: Preferably, the study materials are sterile, at least to a large degree for preclinical studies. In the absence of a facility for complete aseptic manufacture, in order to sterilize the suspensions there are two possible approaches foreseen—autoclaving the final suspensions in ‘vial’, or gamma sterilization.

[2] = Particle sizing by laser light scattering; format: physicochemical; conditions: as received powder
[3] = Batch production: Av drug content per vial (RGA40/1); format: physicochemical; conditions: batch after freeze drying and gamma sterilization; specification 20.0 ± 2.0 mg
[4] = Batch production: pH (RGA40/3); format: physicochemical; conditions: specification 6.0-8.0
[5] = Drug storage stability in saline (accelerated stability trial)
Description: Consequently it was felt to be important to characterise the drug stability over time in aqueous solution as an indicator of likely issues with drug content and/or degradation products in the suspensions on storage.

[6] = Batch production: particle size (RGA40/2); format: physicochemical; conditions: for Particle Size D(0.5): specification <20; for Particle Size D(0.9): specification <30
[7] = Stability of drug aqueous solutions under gamma irradiation; format: physicochemical; conditions: saturated aqueous solution, ~25 kGy at ambient temperature
Protocol: Preferably, the study materials are sterile, at least to a large degree for preclinical studies. In the absence of a facility for complete aseptic manufacture, in order to sterilize the suspensions there are two possible approaches foreseen—autoclaving the final suspensions in ‘vial’, or gamma sterilization. Consequently, in order to initially test the resistance of the drug to degradation in the ‘wet’ environment, drug in saturated solutions were prepared as for the storage stability studies above and subjected to autoclave conditions (121° C./30 min) or gamma irradiation (˜25 kGy at ambient temperature).
Gamma irradiation was conducted at a firm in Melbourne (Steritech; 160 South Gippsland Hwy, Dandenong Sth) and QC certificates provided verifying dose of gamma irradiation received. The samples were exposed to 25 kGy radiation, which severely discoloured the vials, in long term this method may be very suitable when an appropriate glass container, resistant to gamma rays, is used for sample preparation.

glucocorticoid receptor = biological target: T1, glucocorticoid receptor (Homo sapiens, UniProt P04150); assay: Glucocorticoid receptor activity (GR potency) of corticosterones; conditions: relative potency, hydrocortisone (cortisol) = 1
T1 sequence (P04150 1-777): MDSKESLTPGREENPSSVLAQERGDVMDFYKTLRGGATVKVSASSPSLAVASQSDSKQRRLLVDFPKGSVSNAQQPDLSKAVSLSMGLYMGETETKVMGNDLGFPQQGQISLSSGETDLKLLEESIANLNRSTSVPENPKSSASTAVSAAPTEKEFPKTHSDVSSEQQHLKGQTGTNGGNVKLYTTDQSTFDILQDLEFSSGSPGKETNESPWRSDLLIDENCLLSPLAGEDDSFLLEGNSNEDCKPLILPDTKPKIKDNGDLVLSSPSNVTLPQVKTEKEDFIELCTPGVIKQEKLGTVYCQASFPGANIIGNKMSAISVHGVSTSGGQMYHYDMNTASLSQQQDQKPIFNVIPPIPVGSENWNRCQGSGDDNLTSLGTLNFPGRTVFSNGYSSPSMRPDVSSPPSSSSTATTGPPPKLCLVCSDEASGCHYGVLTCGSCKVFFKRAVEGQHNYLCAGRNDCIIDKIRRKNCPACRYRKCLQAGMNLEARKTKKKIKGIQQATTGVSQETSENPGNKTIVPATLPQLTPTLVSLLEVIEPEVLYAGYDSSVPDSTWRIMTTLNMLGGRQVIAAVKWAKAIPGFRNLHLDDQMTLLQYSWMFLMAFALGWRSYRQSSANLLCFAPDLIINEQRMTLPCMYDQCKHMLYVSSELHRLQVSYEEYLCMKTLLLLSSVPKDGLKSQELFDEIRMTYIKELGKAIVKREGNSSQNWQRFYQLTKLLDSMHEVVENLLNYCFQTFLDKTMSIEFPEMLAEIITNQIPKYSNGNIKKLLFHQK

[8] = biological target: T2, mineralocorticoid receptor (Homo sapiens, UniProt P08235); assay: Mineralocorticoid receptor activity (MR potency) of corticosterones; conditions: relative potency, hydrocortisone (cortisol) = 1
T2 sequence (P08235 1-984): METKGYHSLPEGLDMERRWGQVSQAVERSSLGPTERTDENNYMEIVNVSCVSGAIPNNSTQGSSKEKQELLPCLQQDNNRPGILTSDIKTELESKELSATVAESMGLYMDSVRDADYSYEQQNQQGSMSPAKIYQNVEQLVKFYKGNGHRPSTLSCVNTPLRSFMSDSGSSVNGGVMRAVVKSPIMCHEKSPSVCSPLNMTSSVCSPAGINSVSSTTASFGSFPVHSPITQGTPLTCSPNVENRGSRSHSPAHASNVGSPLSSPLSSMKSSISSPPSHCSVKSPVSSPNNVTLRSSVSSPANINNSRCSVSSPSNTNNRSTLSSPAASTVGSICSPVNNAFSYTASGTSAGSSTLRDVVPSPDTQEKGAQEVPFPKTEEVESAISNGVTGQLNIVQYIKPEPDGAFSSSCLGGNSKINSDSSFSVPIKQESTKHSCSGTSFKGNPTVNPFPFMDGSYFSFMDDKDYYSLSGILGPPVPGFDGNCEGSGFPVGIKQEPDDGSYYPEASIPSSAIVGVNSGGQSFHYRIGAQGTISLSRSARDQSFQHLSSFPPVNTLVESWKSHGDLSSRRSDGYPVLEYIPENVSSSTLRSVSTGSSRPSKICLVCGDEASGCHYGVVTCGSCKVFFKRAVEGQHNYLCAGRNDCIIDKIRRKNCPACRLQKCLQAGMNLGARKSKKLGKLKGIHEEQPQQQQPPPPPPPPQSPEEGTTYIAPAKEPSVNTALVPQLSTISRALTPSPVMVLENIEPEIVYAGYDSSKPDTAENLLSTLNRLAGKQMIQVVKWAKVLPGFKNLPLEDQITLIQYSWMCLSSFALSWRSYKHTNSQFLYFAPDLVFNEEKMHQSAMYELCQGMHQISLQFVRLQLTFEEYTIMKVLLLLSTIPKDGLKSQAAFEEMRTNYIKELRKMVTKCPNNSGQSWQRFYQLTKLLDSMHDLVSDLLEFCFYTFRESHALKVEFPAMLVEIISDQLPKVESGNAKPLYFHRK

[9] = Aqueous solubility and solubility enhancement with hydroxy-propyl β-cyclodextrin in saline
Description: FIG. 1: Solubility enhancement for MR compounds and TA in saline with addition of hydroxy propyl β-cyclodextrin (data are mean±sd, n=3). Top: FLU and TA; Bottom: 11-DC; DCS and DCSA.

[10] = Stability of dry drug powders under gamma irradiation; format: physicochemical; conditions: 25 kGy
Description: The poor stability of most drugs under either autoclave or gamma irradiation when in contact with aqueous diluent led to a further set of stability studies to test the effect of gamma irradiation on the dry drug powders, with a view to providing the study materials as sterile powders for reconstitution immediately prior to administration.

[11] = test system: New Zealand albino rabbit eyes; conditions: cited from earlier work
[12] = Duration of action (t1/2); conditions: in vivo; read-out: Duration of action (t1/2 in hours) (converted)

C[C@]12CCC(=O)C=C1CC[C@@H]1[C@@H]2CC[C@@]2(C)[C@H]1CC[C@]2(O)C(=O)CO [11-DC, 11-deoxycortisol]
stability of aqueous solution to autoclave conditions [1]: stable
D(v, 0.5) [2]: 81 microns
D(v, 0.9) [2]: 233 microns
Av Drug Content per vial [3]: Av Drug RGA40/1 20.0 ± 2.0 mg 18.4 ± 0.5 27 Oct. 2006 Passed
pH [4]: pH RGA40/3 6.0-8.0 7.0 3 Nov. 2006 Passed
drug concentration remaining, % of original concentration [5]: > 90%
Particle Size D(0.5) [6]: Particle RGA40/2 D(0.5) = <20 7.1 3 Nov. 2006 Passed
Particle Size D(0.9) [6]: Size D(0.9) = <30 25
initial drug content remaining after gamma irradiation [7]: less than 20%

C[C@]12CCC(=O)C=C1CC[C@@H]1[C@@H]2[C@@H](O)C[C@]2(C=O)[C@@H](C(=O)CO)CC[C@@H]12 [Aldosterone]
GR potency (glucocorticoid receptor): 0.3
MR potency [8]: 200-1000

C[C@H]1C[C@H]2[C@@H]3CCC4=CC(=O)C=C[C@]4(C)[C@@]3(Cl)[C@@H](O)C[C@]2(C)[C@@]1(O)C(=O)CO [Beclometasone]
GR potency (glucocorticoid receptor): 8 puffs 4 times a day;

C[C@]12CCC(=O)C=C1CC[C@@H]1[C@@H]2C(=O)C[C@@]2(C)[C@H]1CC[C@]2(O)C(=O)CO [Cortisone]
GR potency (glucocorticoid receptor): 0.8
MR potency [8]: 0.8

C[C@]12CC[C@H]3[C@@H](CCC4=CC(=O)CC[C@@]43C)[C@@H]1CC[C@@H]2C(=O)CO [DCS, Deoxycorticosterone]
stability of aqueous solution to autoclave conditions [1]: stable
solubility relative to 11-DC and DCSA [9]: 4-8 fold
concentration in solution ([9]; saline with 50 mM HP-βCD): > 8000 µg/mL
D(v, 0.5) [2]: 22 microns
D(v, 0.9) [2]: 80 microns
Av Drug Content per vial [3]: Av Drug RGA40/1 20.0 ± 2.0 mg 18.5 ± 0.7 1 Nov. 2006 Passed
pH [4]: pH RGA40/3 6.0-8.0 7.0 3 Nov. 2006 Passed
Particle Size D(0.5) [6]: Particle RGA40/2 D(0.5) = <20 12.7 3 Nov. 2006 Passed
Particle Size D(0.9) [6]: Size D(0.9) = <30 30.0

CC(=O)OCC(=O)[C@H]1CC[C@H]2[C@@H]3CCC4=CC(=O)CC[C@]4(C)[C@H]3CC[C@]12C [DCSA, deoxycorticosterone acetate]
GR potency (glucocorticoid receptor): 0
stability of aqueous solution to autoclave conditions [1]: completely degraded to DCS
aqueous solubility relative to the other compounds [9]: very low
plateau concentration in solution ([9]; 48 h): around 2 mg/mL
solubility ([9]; aqueous with cosolvent or surfactant or cyclodextrin, thermodynamic from solid): > 6000 µg/mL
stability of dry powder to gamma sterilization (drug content vs non-irradiated control) [10]: slight reduction in drug content
MR potency [8]: 20
D(v, 0.5) [2]: 52 microns
D(v, 0.9) [2]: 226 microns
Av Drug Content per vial [3]: Av Drug RGA40/1 20.0 ± 2.0 mg 16 ± 0.9 2 Nov. 2006 Failed•
pH [4]: pH RGA40/3 6.0-8.0 7.0 3 Nov. 2006 Passed
Particle Size D(0.5) [6]: Particle RGA40/2 D(0.5) = <20 8.25 3 Nov. 2006 Passed
Particle Size D(0.9) [6]: Size D(0.9) = <30 26.77
stability of aqueous solution to gamma irradiation [7]: completely degraded

C[C@]12CCC(=O)C=C1CC[C@H]1[C@@H]3CC[C@](O)(C(=O)CO)[C@@]3(C)C[C@H](O)[C@@]12F [FLU, fludrocortisone]
stability of aqueous solution to autoclave conditions [1]: partly degraded
ERG in the other groups / other eyes ([11]; intravitreal 400 μg, 1 mg, 2 mg/0.1 ml and remaining eyes, two weeks after injection): no significant decrease in ERG
eyes with decreases in ERG ([11]; intravitreal 4 mg/0.1 ml, two weeks after injection): One
eyes with vitreous hemorrhage ([11]; intravitreal 4 mg/0.1 ml): one
signs of retinal toxicity on slit-lamp examination, indirect ophthalmoscopy or light microscopy ([11]; rabbit, in vivo): no signs of retinal toxicity
drug concentration remaining, % of original concentration ([5]; saturated solution in saline, 60° C., after two weeks): 20%
stability in saline over time ([5]; saturated solution in saline, 60° C., up to 14 days): marked instability

C[C@]12CCC(=O)C=C1CC[C@@H]1[C@@H]2[C@@H](O)C[C@@]2(C)[C@H]1CC[C@]2(O)C(=O)CO [Hydrocortisone (cortisol), Hydrocortisone]
GR potency (glucocorticoid receptor): 1
half-life [12]: 8 h
MR potency [8]: 1

C[C@H]1C[C@@H]2[C@H]([C@@H](O)C[C@@]3(C)[C@H]2CC[C@]3(O)C(=O)CO)[C@@]2(C)C=CC(=O)C=C12 [Methylprednisolone]
half-life [12]: 18 to 40 h

C[C@]12C=CC(=O)C=C1CC[C@@H]1[C@@H]2[C@@H](O)C[C@@]2(C)[C@H]1CC[C@]2(O)C(=O)CO [Prednisolone]
GR potency (glucocorticoid receptor): 4
half-life [12]: 16 to 36 h
MR potency [8]: 0.8

C[C@]12C=CC(=O)C=C1CC[C@@H]1[C@@H]2C(=O)C[C@@]2(C)[C@H]1CC[C@]2(O)C(=O)CO [Prednisone]
half-life [12]: 16 to 36 h
MR potency [8]: 0.8

CC1(C)O[C@@H]2C[C@H]3[C@@H]4CCC5=CC(=O)C=C[C@]5(C)[C@@]4(F)[C@@H](O)C[C@]3(C)[C@]2(C(=O)CO)O1 [TA, triamcinolone acetonide]
stability of aqueous solution to autoclave conditions [1]: moderately stable
absolute solubility (compared with FLU) [9]: lower overall
aqueous solubility relative to the other compounds [9]: very low

C[C@]12C=CC(=O)C=C1CC[C@H]1[C@@H]3C[C@@H](O)[C@](O)(C(=O)CO)[C@@]3(C)C[C@H](O)[C@@]12F [Triamcinolone]
GR potency (glucocorticoid receptor): 5
half-life [12]: 12 to 36 h
MR potency [8]: 0
